Measured values as given in the NIST ThermoML archive (doi:10.1016/j.tca.2019.01.018).
± gives the expanded uncertainty stated by the source.

Assays:
[1] = Ring tensiometer
[2] = xn = mol fraction of the nth substance listed; details: Ring tensiometer

CCCCn1cc[n+](C)c1.F[B-](F)(F)F [1-butyl-3-methylimidazolium tetrafluoroborate]
[1]
Details	surface tension liquid-gas [mN/m]
298.15 K	44.6 ± 0.84
308.15 K	43.65 ± 0.83
318.15 K	42.95 ± 0.83
328.15 K	42.25 ± 0.82
338.15 K	41.55 ± 0.82

CCCCn1cc[n+](C)c1.F[B-](F)(F)F [1-butyl-3-methylimidazolium tetrafluoroborate] + O
surface tension liquid-gas [mN/m], [2]
Details	x1 = 0.02	x1 = 0.04	x1 = 0.06	x1 = 0.08	x1 = 0.1	x1 = 0.2	x1 = 0.4	x1 = 0.6	x1 = 0.8	x1 = 1
298.15 K	49.07 ± 1.5	47.16 ± 0.84	47.05 ± 0.83	46.95 ± 0.83	46.8 ± 0.83	46.3 ± 0.83	45.9 ± 0.83	45.4 ± 0.83	45 ± 0.83	44.6 ± 0.84
308.15 K	48.15 ± 1.5	45.95 ± 0.83	45.85 ± 0.82	45.75 ± 0.82	45.65 ± 0.82	45.45 ± 0.82	44.95 ± 0.82	44.55 ± 0.82	44.35 ± 0.83	43.65 ± 0.83
318.15 K	47.35 ± 1.4	45.15 ± 0.82	45.05 ± 0.81	44.95 ± 0.81	44.85 ± 0.81	44.65 ± 0.81	44.15 ± 0.81	43.75 ± 0.82	43.55 ± 0.82	42.95 ± 0.83
328.15 K	46.55 ± 1.4	44.35 ± 0.82	44.25 ± 0.81	44.15 ± 0.81	44.05 ± 0.81	43.85 ± 0.81	43.35 ± 0.81	42.95 ± 0.81	42.75 ± 0.82	42.25 ± 0.82
338.15 K	45.75 ± 1.4	43.55 ± 0.81	43.45 ± 0.8	43.35 ± 0.8	43.25 ± 0.8	43.05 ± 0.8	42.55 ± 0.8	42.15 ± 0.81	41.95 ± 0.81	41.55 ± 0.82

CCn1cc[n+](C)c1.F[B-](F)(F)F [1-ethyl-3-methylimidazolium tetrafluoroborate]
[1]
Details	surface tension liquid-gas [mN/m]
298.15 K	52.05 ± 1
308.15 K	51.65 ± 1
318.15 K	51.25 ± 1
328.15 K	50.85 ± 1
338.15 K	50.45 ± 0.99

CCn1cc[n+](C)c1.F[B-](F)(F)F [1-ethyl-3-methylimidazolium tetrafluoroborate] + O
surface tension liquid-gas [mN/m], [2]
Details	x1 = 0.02	x1 = 0.04	x1 = 0.06	x1 = 0.08	x1 = 0.1	x1 = 0.2	x1 = 0.4	x1 = 0.6	x1 = 0.8	x1 = 1
298.15 K	60.27 ± 1.2	57.47 ± 0.93	56.49 ± 0.91	55.52 ± 0.9	54.98 ± 0.9	53.92 ± 0.89	53.61 ± 0.91	53.23 ± 0.94	52.73 ± 0.97	52.05 ± 1
308.15 K	59.07 ± 1.1	56.47 ± 0.92	55.69 ± 0.9	54.82 ± 0.89	54.38 ± 0.89	53.52 ± 0.89	53.21 ± 0.91	52.83 ± 0.93	52.33 ± 0.97	51.65 ± 1
318.15 K	57.87 ± 1.1	55.47 ± 0.91	54.89 ± 0.89	54.12 ± 0.89	53.78 ± 0.88	53.12 ± 0.89	52.81 ± 0.9	52.43 ± 0.93	51.93 ± 0.96	51.25 ± 1
328.15 K	56.67 ± 1.1	54.47 ± 0.9	54.09 ± 0.89	53.42 ± 0.88	53.18 ± 0.88	52.72 ± 0.88	52.41 ± 0.9	52.03 ± 0.93	51.53 ± 0.96	50.85 ± 1
338.15 K	55.47 ± 1.1	53.47 ± 0.89	53.29 ± 0.88	52.72 ± 0.88	52.58 ± 0.87	52.32 ± 0.88	52.01 ± 0.9	51.63 ± 0.92	51.13 ± 0.95	50.45 ± 0.99

CCCCCCn1cc[n+](C)c1.F[B-](F)(F)F [1-hexyl-3-methylimidazolium tetrafluoroborate]
[1]
Details	surface tension liquid-gas [mN/m]
298.15 K	37.22 ± 0.78
308.15 K	36.62 ± 0.78
318.15 K	35.92 ± 0.77
328.15 K	35.22 ± 0.77
338.15 K	34.52 ± 0.76

CCCCCCn1cc[n+](C)c1.F[B-](F)(F)F [1-hexyl-3-methylimidazolium tetrafluoroborate] + O
surface tension liquid-gas [mN/m], [2]
Details	x1 = 0.3	x1 = 0.4	x1 = 0.5	x1 = 0.6	x1 = 0.7	x1 = 0.8	x1 = 0.9	x1 = 1
298.15 K	38.1 ± 0.79	37.7 ± 0.77	37.54 ± 0.77	37.42 ± 0.77	37.33 ± 0.77	37.26 ± 0.78	37.23 ± 0.78	37.22 ± 0.78
308.15 K	37.26 ± 0.79	37.08 ± 0.76	36.84 ± 0.77	36.82 ± 0.77	36.73 ± 0.77	36.66 ± 0.77	36.63 ± 0.77	36.62 ± 0.78
318.15 K	36.56 ± 0.78	36.28 ± 0.76	36.34 ± 0.76	36.12 ± 0.76	36.03 ± 0.76	35.86 ± 0.77	35.93 ± 0.77	35.92 ± 0.77
328.15 K	35.96 ± 0.78	35.68 ± 0.76	35.64 ± 0.76	35.42 ± 0.76	35.33 ± 0.76	35.26 ± 0.76	35.23 ± 0.76	35.22 ± 0.77
338.15 K	35.26 ± 0.77	34.98 ± 0.75	34.84 ± 0.75	34.72 ± 0.75	34.63 ± 0.75	34.56 ± 0.76	34.53 ± 0.76	34.52 ± 0.76

O [water]
[1]
Details	surface tension liquid-gas [mN/m]
298.15 K	71.8 ± 1
308.15 K	70.1 ± 1
318.15 K	68.4 ± 1
328.15 K	66.7 ± 0.99
338.15 K	65 ± 0.97

O [water] + CCCCCCn1cc[n+](C)c1.F[B-](F)(F)F
[2], x2 = 0
Details	surface tension liquid-gas [mN/m]
298.15 K	71.8 ± 1
308.15 K	70.1 ± 1
318.15 K	68.4 ± 1
328.15 K	66.7 ± 0.99
338.15 K	65 ± 0.97

O [water] + CCCCn1cc[n+](C)c1.F[B-](F)(F)F
[2], x2 = 0
Details	surface tension liquid-gas [mN/m]
298.15 K	71.8 ± 1
308.15 K	70.1 ± 1
318.15 K	68.4 ± 1
328.15 K	66.7 ± 0.99
338.15 K	65 ± 0.97

O [water] + CCn1cc[n+](C)c1.F[B-](F)(F)F
[2], x2 = 0
Details	surface tension liquid-gas [mN/m]
298.15 K	71.8 ± 1
308.15 K	70.1 ± 1
318.15 K	68.4 ± 1
328.15 K	66.7 ± 0.99
338.15 K	65 ± 0.97
